Reference: patent US20230129326A1, “METHODS TO PREVENT SARS-COV-2 INFECTION AND TREAT COVID-19” (priority 2020, published 2023)
In brackets after ≈: the same amount, converted by molar mass. Entries after “also recorded” stand apart in the source; their conditions may differ. Read-outs that look alike come from different tables or passages of the source.

What was measured:
ACE2 = ACE2 (Homo sapiens, UniProt Q9BYF1); assay type: biochemical
[1] = tested on: SARS-CoV-2 isolate USA-UF-1/2020; experiment: microbe, parasite or virus in culture; assay type: cell-based; conditions: for EC50: Severe acute respiratory syndrome coronavirus 2, Vero C1008, read-out: EC50, 50% inhibition of SARS-CoV-2 isolate USA-UF-1/2020 infection of Vero E6 cells
SARS-CoV-2 Strain WA-1 = tested on: SARS-CoV-2 Strain WA-1; set-up: species or system hACE2-transgenic mice; conditions: mouse, in vivo
[2] = set-up: species or system mice; conditions: mouse, in vivo
[3] = target: ACE2/SARS spike protein interaction (Homo sapiens, UniProt Q9BYF1); assay type: cell-based, SARS-CoV
Sequence of ACE2/SARS spike protein interaction (Q9BYF1 18-805 limits assumed): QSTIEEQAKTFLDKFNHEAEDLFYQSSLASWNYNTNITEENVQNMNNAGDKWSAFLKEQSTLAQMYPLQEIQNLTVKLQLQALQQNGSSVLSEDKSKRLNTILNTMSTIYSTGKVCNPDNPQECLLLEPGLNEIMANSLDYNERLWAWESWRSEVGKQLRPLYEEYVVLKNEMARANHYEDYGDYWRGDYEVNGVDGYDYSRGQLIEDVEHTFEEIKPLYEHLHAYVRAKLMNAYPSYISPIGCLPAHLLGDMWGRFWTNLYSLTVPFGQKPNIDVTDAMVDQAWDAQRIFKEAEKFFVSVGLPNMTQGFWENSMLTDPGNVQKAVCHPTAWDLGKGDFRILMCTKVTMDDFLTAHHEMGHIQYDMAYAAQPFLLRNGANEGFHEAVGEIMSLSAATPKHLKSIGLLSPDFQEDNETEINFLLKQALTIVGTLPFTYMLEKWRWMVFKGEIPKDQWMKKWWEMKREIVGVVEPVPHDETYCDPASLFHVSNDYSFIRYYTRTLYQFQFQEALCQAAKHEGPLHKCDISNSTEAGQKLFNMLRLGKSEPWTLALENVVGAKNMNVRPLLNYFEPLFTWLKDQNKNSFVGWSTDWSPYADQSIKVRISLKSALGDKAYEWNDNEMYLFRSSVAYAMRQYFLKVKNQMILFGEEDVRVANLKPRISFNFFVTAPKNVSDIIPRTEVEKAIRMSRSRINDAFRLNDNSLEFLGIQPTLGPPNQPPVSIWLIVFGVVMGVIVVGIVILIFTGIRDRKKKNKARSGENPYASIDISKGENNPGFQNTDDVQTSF

SARS-CoV-2 = experiment: N protein copies by qPCR in VeroE6 cells infected with SARS-CoV-2; assay type: cell-based; conditions: VeroE6, MOI 0.01, 48 h; drug by itself
[4] = tested on: SARS-CoV-2 virus (isolate USA-WA1/2020); experiment: microbe, parasite or virus in culture; assay type: cell-based
SARS-CoV-2 infection = experiment: Drug usage versus SARS-CoV-2 infection in UCSF Health population; assay type: in vivo; conditions: for Odds ratio: drug usage vs SARS-CoV-2 infection; for correlation of usage with protection from SARS-CoV-2 infection: statistically significant
[5] = tested on: SARS-CoV-2 isolate USA-UF-1/2020; assay type: cell-based
[6] = Cytotoxicity (50% cytotoxic concentration); assay type: cell-based

Sequence of ACE2 (Q9BYF1 18-805): as the sequence (Q9BYF1 18-805 limits assumed) above

N=C(N)c1ccc(/N=N/Nc2ccc(C(=N)N)cc2)cc1 [diminazene]
ACE2 binding activity (velocity of ACE2) (ACE2): Enhanced velocity of ACE2

CN(C)CCOC(c1ccccc1)c1ccccc1 [diphenhydramine]
direct antiviral activity against SARS-CoV-2 isolates in vitro [1]: exhibited direct antiviral activity

LQSYGFQPTNGV peptide
lungs at gross necropsy (SARS-CoV-2 Strain WA-1): some damage/abscesses in the lungs | survival at 5 dpi (SARS-CoV-2 Strain WA-1): survived 5 dpi | viral load in the lungs (plaque forming units) (SARS-CoV-2 Strain WA-1): low plaque forming units per liter in the lungs | immune response in mice [2]: induced a strong immune response

CN(C)CC/C=C1/c2ccccc2Sc2ccc(Cl)cc21.Cl [Minithixen, Chlorprothixene hydrochloride]
ACE2 binding activity (velocity of ACE2) (ACE2; hydrochloride): Inhibited velocity of ACE2

CC(CCc1ccccc1)NCC(O)c1ccc(O)c(C(N)=O)c1 (centres unmarked) [labetalol]
ACE2 binding activity (velocity of ACE2) (ACE2): Enhanced velocity of ACE2

NCCNCCN1CC1 [N-(2-aminoethyl)-1 aziridine-ethanamine, N-(2-aminoethyl)-1-aziridine-ethanamine]
ACE2/SARS spike protein interaction [3]: inhibited ACE2 interactions with SARS-CoV spike protein; also recorded: Inhibits ACE2/SARS spike protein interaction | SARS S-glycoprotein-mediated cell fusion [3]: effective in blocking the SARS coronavirus spike protein-mediated cell fusion; also recorded: inhibits SARS S-glycoprotein-mediated cell fusion; also recorded: inhibition of SARS S-glycoprotein-mediated cell fusion | ACE2 binding activity (velocity of ACE2) (ACE2): Inhibits velocity of ACE2

CC(CN1c2ccccc2Sc2ccccc21)N(C)C (centres unmarked) [Promethazine]
reduction of viral replication in vitro (SARS-CoV-2): ~100 ×

O=c1c(O)c(-c2cc(O)c(O)c(O)c2)oc2cc(O)cc(O)c12 [Myricetin, myricetin]
in vitro activity against SARS-CoV-2 [4]: observed to have in vitro activity

CN1CCCC(n2nc(Cc3ccc(Cl)cc3)c3ccccc3c2=O)CC1 (centres unmarked) [azelastine]
direct antiviral activity against SARS-CoV-2 isolates in vitro [1]: exhibited direct antiviral activity | EC50 [1]: 2.24 µg/mL (≈ 5.87 µM) | Odds ratio (SARS-CoV-2 infection): 0.16 | correlation of usage with protection from SARS-CoV-2 infection (SARS-CoV-2 infection): correlated with protection from SARS-CoV-2 infection

CN(C)CCC(c1ccc(Cl)cc1)c1ccccn1 (centres unmarked) [chlorpheniramine]
Odds ratio (SARS-CoV-2 infection): 0.23 | correlation of usage with protection from SARS-CoV-2 infection (SARS-CoV-2 infection): correlated with protection from SARS-CoV-2 infection

NCCNCCNCCN [Triethylenetetramine, triethylenetetramine]
ACE2/SARS spike protein interaction [3]: Inhibits ACE2/SARS spike protein interaction | ACE2 binding activity (velocity of ACE2) (ACE2): Inhibits velocity of ACE2

CN(C)CCC(c1ccc(Br)cc1)c1ccccn1 (centres unmarked) [Brompheniramine]
Odds ratio (SARS-CoV-2 infection): 0.76

CCN(CC)CCCN(c1ccccc1)C1Cc2ccccc2C1 [Aprindine, aprindine]
ACE2 binding activity (velocity of ACE2) (ACE2): Inhibited velocity of ACE2

OCCOCCN1CCN(C(c2ccccc2)c2ccc(Cl)cc2)CC1 (centres unmarked) [hydroxyzine]
level of SARS-CoV-2 mRNA expressed in the cells [5]: significantly lowered | viral burden [4]: lowered viral burden to below the level of detection | EC50 ([4]; Severe acute respiratory syndrome coronavirus 2, Vero C1008, 48 h, read-out: EC50, viral burden by plaque assay): 11.3 µg/mL (≈ 30.1 µM) | EC50 ([4]; Severe acute respiratory syndrome coronavirus 2, Vero C1008, read-out: anti-SARS-CoV-2 activity EC50): 11.3 µg/mL (≈ 30.1 µM) | direct antiviral activity against SARS-CoV-2 isolates in vitro [1]: exhibited direct antiviral activity | EC50 [1]: 15.3 µg/mL (≈ 40.8 µM) | Odds ratio (SARS-CoV-2 infection): 0.76 | 50% cytotoxic concentration [6]: approximately 50 μg/ml | ACE2 binding activity (velocity of ACE2) (ACE2): inhibited ACE2 activity; also recorded: Inhibited velocity of ACE2
